From US20250388589A1, “TRICYCLIC HETEROCYCLIC DERIVATIVES, COMPOSITIONS AND USES THEREOF” (Danatlas Pharmaceuticals Co., Ltd., priority 2022, published 2025)
Where two headings read alike, the source gives them in different places.

Assays:
[1] = system: Kuramochi cell line; experiment: Cell Viability Assay (Cell Titer-Glo, 7 days); assay type: cell-based; settings: Kuramochi cells, 7 days incubation, read-out: PARG Cell viability (IC50)
How it was run: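 Kuramochi cells in RPMI with 10% FBS, seeded at 400 cells/well, were treated with a 9-point 3-fold dilution series in duplicate for 7 days at 37 °C, 5% CO2. Viability by CellTiter-Glo luminescence, normalised to DMSO and medium-only controls; IC50 from 4-parameter Hill fit.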

[2] = target: hPARG (C-terminal His6-tag) (Homo sapiens (Human), UniProt Q86W56); experiment: PARG Enzymatic Activity Assay (HTRF); assay type: biochemical; settings: hPARG 65 pM final, biotinylated-NAD ribosylated PARP1 8 nM final
Chain of hPARG (C-terminal His6-tag) (Q86W56 whole entry): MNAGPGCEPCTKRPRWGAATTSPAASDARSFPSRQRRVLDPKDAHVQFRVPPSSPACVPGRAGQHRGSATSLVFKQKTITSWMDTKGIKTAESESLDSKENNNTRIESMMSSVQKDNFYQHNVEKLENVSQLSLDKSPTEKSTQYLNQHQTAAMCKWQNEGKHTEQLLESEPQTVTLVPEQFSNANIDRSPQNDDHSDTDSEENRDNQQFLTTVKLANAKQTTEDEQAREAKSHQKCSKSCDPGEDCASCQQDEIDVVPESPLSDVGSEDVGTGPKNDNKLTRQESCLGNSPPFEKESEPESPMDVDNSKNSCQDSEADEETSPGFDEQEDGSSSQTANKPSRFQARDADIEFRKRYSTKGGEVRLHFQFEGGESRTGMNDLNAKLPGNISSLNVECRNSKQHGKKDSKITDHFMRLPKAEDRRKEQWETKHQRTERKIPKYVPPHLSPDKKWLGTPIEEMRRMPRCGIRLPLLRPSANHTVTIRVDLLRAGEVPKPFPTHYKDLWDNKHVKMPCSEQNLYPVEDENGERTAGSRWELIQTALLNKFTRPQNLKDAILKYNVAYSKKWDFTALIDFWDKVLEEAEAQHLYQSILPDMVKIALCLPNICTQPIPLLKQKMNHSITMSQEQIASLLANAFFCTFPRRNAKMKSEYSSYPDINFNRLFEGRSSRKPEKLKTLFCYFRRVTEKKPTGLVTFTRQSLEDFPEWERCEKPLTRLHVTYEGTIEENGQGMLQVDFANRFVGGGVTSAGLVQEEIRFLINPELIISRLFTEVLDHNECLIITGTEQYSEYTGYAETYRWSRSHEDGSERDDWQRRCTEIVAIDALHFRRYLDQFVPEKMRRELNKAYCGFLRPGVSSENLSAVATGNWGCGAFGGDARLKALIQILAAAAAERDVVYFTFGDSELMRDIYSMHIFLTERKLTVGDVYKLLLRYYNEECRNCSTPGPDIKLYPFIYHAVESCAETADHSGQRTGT
How it was run: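 E. coli-expressed enzyme (65 pM final) preincubated 60 min RT with compounds (10-point 4-fold dilution, duplicate) in 50 mM Tris pH 7.4, 3 mM EDTA, 1 mM DTT, 50 mM KCl, 0.01% Tween 20. Biotinylated-NAD ribosylated PARP1 substrate (8 nM final) reacted 10 min RT; Eu-streptavidin/anti-6HIS-XL665 HTRF read 665/620 nm after 60 min. IC50 from 4-parameter Hill fit.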

| SMILES | IC50 [1] [nM] | IC50 [2] [nM] | IC50 ([1]; 168 h) [nM] |
| --- | --- | --- | --- |
| C[C@H]1CC(c2ncnc3c2c2cc(F)c(S(=O)(=O)NC4(C)CC4)cc2n3-c2nnc(C(F)F)s2)CCN1C(=O)N(C)C (stereo partly drawn) [Example 149, (2S)-4-(9-(5-(difluoromethyl)-1,3,4-thiadiazol-2-yl)-6-fluoro-7-(N-(1-methylcyclopropyl)sulfamoyl)-9H-pyrimido[4,5-b]indol-4-yl)-N,N,2-trimethylpiperidine-1-carboxamide] | < 100 | < 100 | – |
| N#CC1(NS(=O)(=O)c2ccc3c4c(N5CC[C@@H](O)[C@@H](F)C5)ncnc4n(-c4nnc(C(F)F)s4)c3c2)CC1 [Example 174, N-(1-cyanocyclopropyl)-9-(5-(difluoromethyl)-1,3,4-thiadiazol-2-yl)-4-((3S,4R)-3-fluoro-4-hydroxypiperidin-1-yl)-9H-pyrimido[4,5-b]indole-7-sulfonamide] | – | < 100 | < 100 |
| C[C@@H]1CN(C(=O)N(C)C)[C@@H](C)CN1c1ncnc2c1c1cc(F)c(S(=O)(=O)NC3(C#N)CC3)cc1n2-c1nnc(C(F)F)s1 [Example 45, (2S,5R)-4-(7-(N-(1-Cyanocyclopropyl)sulfamoyl)-9-(5-(difluoromethyl)-1,3,4-thiadiazol-2-yl)-6-fluoro-9H-pyrimido[4,5-b]indol-4-yl)-N,N,2,5-tetramethylpiperazine-1-carboxamide] | – | < 100 | < 100 |
| N#CC1(NS(=O)(=O)c2ccc3c4c(C5=CCC(O)CC5)ncnc4n(-c4nnc(C(F)F)s4)c3c2)CC1 (stereo not shown) [Example 84, N-(1-Cyanocyclopropyl)-9-(5-(difluoromethyl)-1,3,4-thiadiazol-2-yl)-4-(4-hydroxycyclohex-1-en-1-yl)-9H-pyrimido[4,5-b]indole-7-sulfonamide] | – | < 100 | < 100 |
| CN(C)C(=O)N1CCC(c2ncnc3c2c2ccc(S(=O)(=O)NC4(C#N)CC4)cc2n3-c2nnc(C(F)F)s2)CC1 [Example 88, 4-(7-(N-(1-Cyanocyclopropyl)sulfamoyl)-9-(5-(difluoromethyl)-1,3,4-thiadiazol-2-yl)-9H-pyrimido[4,5-b]indol-4-yl)-N,N-dimethylpiperidine-1-carboxamide] | – | < 100 | < 100 |
| CC(=O)N1CCC(c2ncnc3c2c2ccc(S(=O)(=O)NC4(C#N)CC4)cc2n3-c2nnc(C(F)F)s2)CC1 [Example 105, 4-(1-acetylpiperidin-4-yl)-N-(1-cyanocyclopropyl)-9-(5-(difluoromethyl)-1,3,4-thiadiazol-2-yl)-9H-pyrimido[4,5-b]indole-7-sulfonamide] | – | < 100 | < 100 |
| C[C@H]1CN(c2ncnc3c2c2ccc(S(=O)(=O)NC4(C)CC4)cc2n3-c2nnc(C(F)F)s2)CCO1 [Example 99, (S)-9-(5-(Difluoromethyl)-1,3,4-thiadiazol-2-yl)-N-(1-methylcyclopropyl)-4-(2-methylmorpholino)-9H-pyrimido[4,5-b]indole-7-sulfonamide] | – | < 100 | < 100 |
| N#CC1(NS(=O)(=O)c2ccc3c4c(N5CCC6(CCCO6)CC5)ncnc4n(-c4nnc(C(F)F)s4)c3c2)CC1 [Example 182, N-(1-Cyanocyclopropyl)-9-(5-(difluoromethyl)-1,3,4-thiadiazol-2-yl)-4-(1-oxa-8-azaspiro[4.5]decan-8-yl)-9H-pyrimido[4,5-b]indole-7-sulfonamide] | – | < 100 | < 100 |
| N#CC1(NS(=O)(=O)c2ccc3c4c(N5CCC6(CCOC6)CC5)ncnc4n(-c4nnc(C(F)F)s4)c3c2)CC1 [Example 183, N-(1-Cyanocyclopropyl)-9-(5-(difluoromethyl)-1,3,4-thiadiazol-2-yl)-4-(2-oxa-8-azaspiro[4.5]decan-8-yl)-9H-pyrimido[4,5-b]indole-7-sulfonamide] | – | < 100 | < 100 |
| C[C@@H]1CN(C)[C@@H](C)CN1c1ncnc2c1c1ccc(S(=O)(=O)NC3(C#N)CC3)cc1n2-c1nnc(C(F)F)s1 [Example 193, N-(1-Cyanocyclopropyl)-9-(5-(difluoromethyl)-1,3,4-thiadiazol-2-yl)-4-((2R,5S)-2,4,5-trimethylpiperazin-1-yl)-9H-pyrimido[4,5-b]indole-7-sulfonamide] | – | < 100 | < 100 |
| CN1CCN(c2ncnc3c2c2ccc(S(=O)(=O)NC4(C#N)CC4)cc2n3-c2nnc(C(F)F)s2)C[C@@H]1CF [Example 203, (R)—N-(1-Cyanocyclopropyl)-9-(5-(difluoromethyl)-1,3,4-thiadiazol-2-yl)-4-(3-(fluoromethyl)-4-methylpiperazin-1-yl)-9H-pyrimido[4,5-b]indole-7-sulfonamide] | – | < 100 | < 100 |
| CC(C)(C)OC(=O)N1CCC(c2ncnc3c2c2ccc(S(=O)(=O)NC4(C#N)CC4)cc2n3-c2nnc(C(F)F)s2)CC1 [Example 86, tert-butyl 4-(7-(N-(1-cyanocyclopropyl)sulfamoyl)-9-(5-(difluoromethyl)-1,3,4-thiadiazol-2-yl)-9H-pyrimido[4,5-b]indol-4-yl)piperidine-1-carboxylate] | – | < 100 | 100 to 1000 |
| CC(C)C(=O)N1C[C@@H](C)N(c2ncnc3c2c2ccc(S(=O)(=O)NC4(C)CC4)cc2n3-c2nnc(C(F)F)s2)C[C@@H]1C [Example 64, 9-(5-(Difluoromethyl)-1,3,4-thiadiazol-2-yl)-4-((2R,5S)-4-isobutyryl-2,5-dimethylpiperazin-1-yl)-N-(1-methylcyclopropyl)-9H-pyrimido[4,5-b]indole-7-sulfonamide] | – | < 100 | < 100 |
| N#CC1(NS(=O)(=O)c2ccc3c4c(N5CCC(N6CCOCC6)[C@@H](F)C5)ncnc4n(-c4nnc(C(F)F)s4)c3c2)CC1 (stereo partly drawn) [Example 209, N-(1-Cyanocyclopropyl)-9-(5-(difluoromethyl)-1,3,4-thiadiazol-2-yl)-4-((3S)-3-fluoro-4-morpholinopiperidin-1-yl)-9H-pyrimido[4,5-b]indole-7-sulfonamide] | – | < 100 | < 100 |
| CN(C)C(=O)c1ccc(-c2ncnc3c2c2ccc(S(=O)(=O)NC4(C#N)CC4)cc2n3-c2nnc(C(F)F)s2)cn1 [Example 97, 5-(7-(N-(1-cyanocyclopropyl)sulfamoyl)-9-(5-(difluoromethyl)-1,3,4-thiadiazol-2-yl)-9H-pyrimido[4,5-b]indol-4-yl)-N,N-dimethylpicolinamide] | – | < 100 | < 100 |
| C[C@H]1CN(C(=O)N(C)C)CCN1c1ncnc2c1c1ccc(S(=O)(=O)NC3(C#N)CC3)cc1n2-c1nnc(C(F)F)s1 [Example 72, (S)-4-(7-(N-(1-Cyanocyclopropyl)sulfamoyl)-9-(5-(difluoromethyl)-1,3,4-thiadiazol-2-yl)-9H-pyrimido[4,5-b]indol-4-yl)-N,N,3-trimethylpiperazine-1-carboxamide] | – | 100 to 1000 | 100 to 1000 |
| CN1CCN(c2ccnc3c2c2ccc(S(=O)(=O)NC4(C#N)CC4)cc2n3-c2nnc(C(F)F)s2)CC1 [Example 198, N-(1-Cyanocyclopropyl)-9-(5-(difluoromethyl)-1,3,4-thiadiazol-2-yl)-4-(4-methylpiperazin-1-yl)-9H-pyrido[2,3-b]indole-7-sulfonamide] | – | < 100 | < 100 |
| C[C@H]1CN(c2ncnc3c2c2ccc(S(=O)(=O)NC4(C)CC4)cc2n3-c2nnc(C(F)F)s2)CCN1C(=O)N(C)C [Example 101, (S)-4-(9-(5-(Difluoromethyl)-1,3,4-thiadiazol-2-yl)-7-(N-(1-methylcyclopropyl)sulfamoyl)-9H-pyrimido[4,5-b]indol-4-yl)-N,N,2-trimethylpiperazine-1-carboxamide] | – | < 100 | < 100 |
| C[C@H]1CN(c2ncnc3c2c2ccc(S(=O)(=O)NC4(C#N)CC4)cc2n3-c2nnc(C(F)F)s2)CCN1CC1CC1 [Example 164, (S)-N-(1-cyanocyclopropyl)-4-(4-(cyclopropylmethyl)-3-methylpiperazin-1-yl)-9-(5-(difluoromethyl)-1,3,4-thiadiazol-2-yl)-9H-pyrimido[4,5-b]indole-7-sulfonamide] | – | < 100 | < 100 |
| CN1CCC[C@H]1C(=O)N1CCC(c2ncnc3c2c2ccc(S(=O)(=O)NC4(C#N)CC4)cc2n3-c2nnc(C(F)F)s2)CC1 [Example 112, N-(1-cyanocyclopropyl)-9-(5-(difluoromethyl)-1,3,4-thiadiazol-2-yl)-4-(1-(methyl-L-prolyl)piperidin-4-yl)-9H-pyrimido[4,5-b]indole-7-sulfonamide] | – | < 100 | 100 to 1000 |
| CC(C)C(=O)N1CC=C(c2ccnc3c2c2ccc(S(=O)(=O)NC4(C#N)CC4)cc2n3-c2nnc(C(F)F)s2)CC1 [Example 196, N-(1-Cyanocyclopropyl)-9-(5-(difluoromethyl)-1,3,4-thiadiazol-2-yl)-4-(1-isobutyryl-1,2,3,6-tetrahydropyridin-4-yl)-9H-pyrido[2,3-b]indole-7-sulfonamide] | – | < 100 | 100 to 1000 |
| CC(C)N1CCN(c2ncnc3c2c2ccc(S(=O)(=O)NC4(C#N)CC4)cc2n3-c2nnc(C(F)F)s2)CC1=O [Example 180, N-(1-Cyanocyclopropyl)-9-(5-(difluoromethyl)-1,3,4-thiadiazol-2-yl)-4-(4-isopropyl-3-oxopiperazin-1-yl)-9H-pyrimido[4,5-b]indole-7-sulfonamide] | – | < 100 | < 100 |
| Cc1nc(N2CCN3CCOC[C@H]3C2)c2c3ccc(S(=O)(=O)NC4(C#N)CC4)cc3n(-c3nnc(C(F)F)s3)c2n1 [Example 192, (R)—N-(1-Cyanocyclopropyl)-9-(5-(difluoromethyl)-1,3,4-thiadiazol-2-yl)-4-(hexahydropyrazino[2,1-c][1,4]oxazin-8(1H)-yl)-2-methyl-9H-pyrimido[4,5-b]indole-7-sulfonamide] | – | 100 to 1000 | < 100 |
